Experimental data published in PubChem BioAssay (NCI).
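1) Cells in 96-well plates. 2) Compound, 48 h, 5 concentrations. 3) Linear interpolation between surrounding doses. 4) Unreached endpoint = highest concentration. TGI denotes the concentration required for complete inhibition of growth.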

Key:
Assay in all cases: inhibition of tumour cell growth, NCI panel, 48 h
[1] = system: SN12C renal
[2] = system: PC-3 prostate
[3] = system: SF-295 CNS
[4] = system: OVCAR-8 ovarian
[5] = system: T-47D breast
[6] = system: MDA-MB-435
[7] = system: SK-MEL-28 melanoma
[8] = system: RPMI-8226 leukemia
[9] = system: HOP-92 NSCLC
[10] = system: MDA-MB-231 breast
[11] = system: K-562 leukemia
[12] = system: SF-268 CNS
[13] = system: CCRF-CEM leukemia
[14] = system: BT-549 breast
[15] = system: OVCAR-5 ovarian
[16] = system: LOX IMVI melanoma
[17] = system: SK-MEL-2 melanoma
[18] = system: OVCAR-3 ovarian
[19] = system: A549 NSCLC
[20] = system: UO-31 renal
[21] = system: SNB-19 CNS
[22] = system: MOLT-4 leukemia
[23] = system: 786-0 renal
[24] = system: HL-60(TB) leukemia
[25] = system: MCF7 breast
[26] = system: SF-539 CNS
[27] = system: NCI/ADR-RES ovarian
[28] = system: CAKI-1 renal
[29] = system: NCI-H226 lung
[30] = system: MALME-3M melanoma
[31] = system: NCI-H522 lung
[32] = system: OVCAR-4 ovarian
[33] = system: SW-620 colon
[34] = system: HOP-62 NSCLC
[35] = system: U251 CNS
[36] = system: SK-MEL-5 melanoma
[37] = system: A498 renal
[38] = system: IGROV1 ovarian
[39] = system: HS 578T breast
[40] = system: TK-10 renal
[41] = system: NCI-H23 lung
[42] = system: UACC-257 melanoma
[43] = system: UACC-62 melanoma
[44] = system: MDA-N
[45] = system: COLO 205 colon
[46] = system: ACHN renal
[47] = system: M14 melanoma
[48] = system: HT29 colon
[49] = system: DU-145 prostate
[50] = system: KM12 colon
[51] = system: HCT-15 colon
[52] = system: RXF 393 renal
[53] = system: HCT-116 colon
[54] = system: EKVX NSCLC

Molecule `O=C1CCC(=O)N1CNc1ccc2c(c1)Sc1ccccc1O2` has a TGI [1] of 76.1 µM, a TGI [2] greater than 100 µM and a TGI [3] greater than 100 µM. It also gave a TGI [4] of 68.5 µM, a TGI [5] greater than 100 µM and a TGI [6] greater than 100 µM. For the same molecule, the TGI [7] was greater than 100 µM, the TGI [8] was greater than 100 µM and the TGI [9] was 56.7 µM. It also gave a TGI [10] greater than 100 µM, a TGI [11] greater than 100 µM and a TGI [12] greater than 100 µM. The TGI [13] was greater than 100 µM, the TGI [14] was 93.4 µM and the TGI [15] was greater than 100 µM. For the same molecule, the TGI [16] was 68.9 µM, the TGI [17] was 40.6 µM and the TGI [18] was 75 µM. It also gave a TGI [19] greater than 100 µM, a TGI [20] of 91.5 µM and a TGI [21] greater than 100 µM. For the same molecule, the TGI [22] was greater than 100 µM, the TGI [23] was 58.9 µM and the TGI [24] was 54.8 µM. The TGI [25] was greater than 100 µM, the TGI [26] was 34.7 µM and the TGI [27] was greater than 100 µM. It also gave a TGI [28] greater than 100 µM, a TGI [29] of 63.1 µM and a TGI [30] greater than 100 µM. It also gave a TGI [31] of 53.6 µM, a TGI [32] greater than 100 µM and a TGI [33] greater than 100 µM. It also gave a TGI [34] greater than 100 µM, a TGI [35] greater than 100 µM and a TGI [36] of 70.1 µM. It also gave a TGI [37] greater than 100 µM, a TGI [38] greater than 100 µM and a TGI [39] greater than 100 µM. It also gave a TGI [40] greater than 100 µM, a TGI [41] greater than 100 µM and a TGI [42] greater than 100 µM. The TGI [43] was greater than 100 µM, the TGI [44] was greater than 100 µM and the TGI [45] was 35.3 µM. It also gave a TGI [46] greater than 100 µM, a TGI [47] of 99.2 µM and a TGI [48] of 54.7 µM. For the same molecule, the TGI [49] was greater than 100 µM, the TGI [50] was greater than 100 µM and the TGI [51] was greater than 100 µM. It also gave a TGI [52] of 79.9 µM, a TGI [53] of 45.7 µM and a TGI [54] of 75.4 µM.
